Structures are written as SMILES.

The results in this text go back to US20260055113A1, “HETEROARYL COMPOUNDS FOR THE TREATMENT OF CANCER” (Hoffmann-La Roche Inc., priority 2022, published 2026).

Series [1] in a line: Human microsomal stability assay. Format: in vitro ADME. The settings on record: human liver microsomes 0.5 mg/mL, 1 μM test compound, 37° C., pH 7.4. The protocol:
Human liver microsomes (Cat. NO.: 452117, Corning, USA) were preincubated with test compound for 10 minutes at 37° C. in 100 mM potassium phosphate buffer, pH 7.4. The reactions were initiated by adding NADPH regenerating system. The final incubation mixtures contained 1 μM test compound, 0.5 mg/mL liver microsomal protein, 1 mM MgCl2, 1 mM NADP, 1 unit/mL isocitric dehydrogenase and 6 mM isocitric acid in 100 mM potassium phosphate buffer, pH 7.4. After incubation times of 0, 3, 6, 9, 15 and 30 minutes at 37° C., 300 μL of cold ACN (including internal standard) was added to 100 μL incubation mixture to terminate the reaction. Following precipitation and centrifugation, 100 μL supernatant will be taken out and added 300 μL water. The amount of compound remaining in the samples was determined by LC-MS/MS. Controls of no NADPH regenerating system at zero and 30 minutes were also prepared and analyzed. The results were categorized as: low (<7.0 mL/min/kg), medium (7.0-16.2 mL/min/kg) and high (16.2-23.2 mL/min/kg).
In general terms: Liver microsomes are a subcellular fraction often used to study metabolism.

For series [2], the target named is T1, CD73 (Homo sapiens (Human), UniProt P21589). The experiment in a line: CD73 cellular assay (MDA-MB-231 cells, malachite readout). Format: cell-based. Conditions: AMP substrate, 45 min, read-out: Cellular IC50 against CD73. Here is the method: After incubating with compounds for 30 minutes, 40 μL of AMP working solution (200 μM AMP in assay buffer) was added into each well in the assay plate. The assay plate was then incubated in a 5% CO2 incubator (Thermo Fisher Scientific) at 37° C. for 45 min. After the reaction was completed, 50 μL of the supernatants was collected and transferred into a new 384 well plate. 10 μL of Malachite A was added to each well in the assay plate and incubated for 10 minutes. 10 μL of Malachite B was then added to each corresponding well of the plate and incubated for 30 minutes.
Target sequence in this assay (P21589 27-574): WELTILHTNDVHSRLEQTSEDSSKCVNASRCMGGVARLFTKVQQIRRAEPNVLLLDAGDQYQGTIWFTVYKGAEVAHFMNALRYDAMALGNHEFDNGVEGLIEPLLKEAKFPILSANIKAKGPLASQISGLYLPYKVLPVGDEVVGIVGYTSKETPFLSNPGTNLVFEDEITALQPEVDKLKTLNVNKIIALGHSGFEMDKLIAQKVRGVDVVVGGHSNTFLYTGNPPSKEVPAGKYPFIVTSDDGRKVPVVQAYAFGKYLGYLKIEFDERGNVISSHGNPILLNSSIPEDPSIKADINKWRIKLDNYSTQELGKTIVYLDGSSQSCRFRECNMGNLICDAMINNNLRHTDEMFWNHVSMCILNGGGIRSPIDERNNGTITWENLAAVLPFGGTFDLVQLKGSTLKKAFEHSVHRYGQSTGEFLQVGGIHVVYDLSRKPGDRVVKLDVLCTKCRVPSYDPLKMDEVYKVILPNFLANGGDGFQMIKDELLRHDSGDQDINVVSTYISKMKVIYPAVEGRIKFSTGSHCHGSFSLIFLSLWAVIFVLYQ

Series [3] addresses T1, CD73. The experiment in a line: CD73 potency assay using LC/MS (enzymatic). Type of series: biochemical. The settings on record: 0.05 nM recombinant CD73 protein, LC/MS adenosine readout; read-out: Enzymatic IC50 against CD73. Here is the method:
The purpose of this assay is to identify and characterize inhibitors of CD73 enzymatic activity. […] 10 μL of enzyme working solution (containing 0.05 nM recombinant CD73 protein, 10 mM Tris pH 7.5, 100 mM NaCl, 0.01% BSA, 0.2 mM Octyl glucoside) was added to the assay plate and incubated with compounds for 15 minutes at room temperature. After adding 15 μL of AMP working solution (Containing 10 mM Tris pH 7.5, 100 mM NaCl, 0.01% BSA, 0.2 mM Octyl glucoside, with 1000 μM of AMP final concentration) and incubate for 10 min at room temperature. […] After centrifugation, 75 μL of the mixture was transferred to a new 384-well plate for LC/MS analysis.
Samples from the 384-well plates, were loaded onto an autosampler deck, then injected with ADDA-LC-MS/MS. The aqueous mobile phase is 0.1% formic acid in water. The organic mobile phase is 0.1% formic acid in acetonitrile. Flow rate is maintained at 0.8 mL/minute using Shimadzu pumps. The column is ACE 5 Phenyl, 50×2.1 mm. The analysis was performed on a SCIEX triple quadrupole mass spectrometer operating in positive ion mode. The effluent from the HPLC column was directly introduced into the electrospray ionization (ESI). Multiple reaction monitoring (MRM) is used to determine analyte and internal standard (IS) responses. […] The data is calculated using the peak area ratio (PAR) semi-quantitative method.
Target sequence in this assay (P21589 27-574, species assumed): as the sequence (P21589 27-574) above

The subject of a further series is CD4+ T cells. Description: T cell proliferation assay, CD4+ T cells. Conditions: read-out: CD4+ T cell proliferation EC50; rescue of proliferation under high AMP condition (200 μM AMP), 72 hours.
For the next series, the system named is CD8+ T cells. The experiment in a line: T cell proliferation assay, CD8+ T cells. The settings on record: read-out: CD8+ T cell proliferation EC50; rescue of proliferation under high AMP condition (200 μM AMP), 72 hours.

Protocol for CD4+ T cells: (§1) The purpose of this assay is to characterize the potency of inhibitors of CD73 in rescuing adenosine-mediated inhibition of T cell proliferation. CD4+ or CD8+ T cells were isolated from peripheral blood mononuclear cells (PBMCs, HemaCare) by immunomagnetic negative selection using EasySep™ Isolation Kit ([sequence] Technologies) following the supplier's protocol. CD4+ or CD8+ T cells were pelleted by centrifugation at 300 gravitational force (g) for 5 minutes at room temperature and re-suspended in PBS. CellTrace™ Violet staining solution (Invitrogen) was added at 1:5,000 and incubated at 37° C. for 20 minutes, protected from light. […] Cells were then pelleted by centrifugation at 300 g for 5 minutes at room temperature and re-suspended in fresh, pre-warmed complete culture medium. 50 μL of cells were seeded per well in 96 well u-bottom plates. 50 μL of CD3/CD28 beads-containing medium and 50 μL of media containing compounds were added into cells. 50 μL of media containing AMP and EHNA hydrochloride (Sigma-Aldrich) was added into cells at 200 μM and 5 μM final concentration, respectively. Cells were incubated for 72 hours at 37° C. in a 5% CO2 incubator. 200 μL of PBS was then added to each well and cells were centrifuged at 300 g, 4° C. for 10 minutes. […] The supernatant was discarded and cells were re-suspended in 60 μL of cell staining buffer and analyzed on a flow cytometer.
Protocol for CD8+ T cells: as §1

On to `Cn1nc(C2CC2)c2cc(-c3c[nH]c(=O)[nH]c3=O)nnc21` [Example 2, 5-(3-cyclopropyl-1-methyl-pyrazolo[3,4-c]pyridazin-5-yl)-1H-pyrimidine-2,4-dione], for which the “CL (h)” value in series [1] turned out to be 8.52 mL/min/kg. The IC50 at CD73 [2] came out at 10.2 nM; at CD73 [3], 0.89 nM.

In the case of `Cn1nc(-c2ccnn2Cc2ccccc2)c2cc(-c3c[nH]c(=O)[nH]c3=O)nnc21` [Example 7, 5-[3-(2-benzylpyrazol-3-yl)-1-methyl-pyrazolo[3,4-c]pyridazin-5-yl]-1H-pyrimidine-2,4-dione], the “CL (h)” value in series [1] turned out to be 9.85 mL/min/kg. The concentration for half-maximal inhibition (IC50) was found to be 11.4 nM at CD73 [2] and 1.94 nM at CD73 [3].

As for `CC(C)Oc1nn(C)c2nnc(-c3c[nH]c(=O)[nH]c3=O)cc12` [Example 8, 5-(3-isopropoxy-1-methyl-pyrazolo[3,4-c]pyridazin-5-yl)-1H-pyrimidine-2,4-dione], the IC50 at CD73 [2] was determined as 13.3 nM; on CD73 [3] it was 3.88 nM.

For the compound `Cc1nc(C(C)Oc2nn(C)c3nnc(-c4c[nH]c(=O)[nH]c4=O)cc23)cs1` (stereo not drawn) [Example 21, 5-[1-methyl-3-[1-(2-methylthiazol-4-yl)ethoxy]pyrazolo[3,4-c]pyridazin-5-yl]-1H-pyrimidine-2,4-dione], the “CL (h)” value in series [1] came out at 6.32 mL/min/kg. Further, the concentration for half-maximal inhibition (IC50) at CD73 [2] amounted to 4.6 nM; on CD73 [3], 0.65 nM.

On to `C[C@H](Oc1nn(C)c2nnc(-c3c[nH]c(=O)[nH]c3=O)cc12)c1ccccn1` [Example 26, 5-[1-methyl-3-[(1S)-1-(2-pyridyl)ethoxy]pyrazolo[3,4-c]pyridazin-5-yl]-1H-pyrimidine-2,4-dione], for which the “CL (h)” value in series [1] stood at 6.15 mL/min/kg. In addition, the EC50 was 5.6 nM with CD4+ T cells and 3.9 nM in the series with CD8+ T cells. Also, the IC50 is 2.7 nM at CD73 [2] and 0.33 nM on CD73 [3].

As for `C[C@H](Oc1nn(C)c2nnc(-c3c[nH]c(=O)[nH]c3=O)cc12)c1ccccc1` [Example 27, 5-[1-methyl-3-[(1S)-1-phenylethoxy]pyrazolo[3,4-c]pyridazin-5-yl]-1H-pyrimidine-2,4-dione], the “CL (h)” value in series [1] is recorded as 6.15 mL/min/kg. Moreover, the figures for the EC50 in the series on CD4+ T cells and in the series with CD8+ T cells were 4.3 nM and 3.84 nM, respectively.

With `Cn1nc(O[C@H](c2ccccn2)C(F)(F)F)c2cc(-c3c[nH]c(=O)[nH]c3=O)nnc21` [Example 29A, 5-[1-methyl-3-[(1R)-2,2,2-trifluoro-1-(2-pyridyl)ethoxy]pyrazolo[3,4-c]pyridazin-5-yl]-1H-pyrimidine-2,4-dione], in series [1], the “CL (h)” value worked out at 6.15 mL/min/kg. Besides, the results for the half-maximal inhibitory concentration (IC50) on CD73 [2] and at CD73 [3] were 3.4 nM and 0.38 nM, respectively.

`Cn1nc(O[C@H](c2ccccc2)C(F)(F)F)c2cc(-c3c[nH]c(=O)[nH]c3=O)nnc21` [Example 30A, 5-[1-methyl-3-[(1R)-2,2,2-trifluoro-1-phenyl-ethoxy]pyrazolo[3,4-c]pyridazin-5-yl]-1H-pyrimidine-2,4-dione]: the “CL (h)” value in series [1] turned out to be 6.15 mL/min/kg. In addition, the IC50 is 1.6 nM at CD73 [2] and 0.15 nM on CD73 [3].

In the case of `CN(c1nn(C)c2nnc(-c3c[nH]c(=O)[nH]c3=O)cc12)C1CCCC1` [Example 36, 5-[3-[cyclopentyl(methyl)amino]-1-methyl-pyrazolo[3,4-c]pyridazin-5-yl]-1H-pyrimidine-2,4-dione], the “CL (h)” value in series [1] was 6.15 mL/min/kg. Moreover, the half-maximal inhibitory concentration (IC50) on CD73 [2] is 8.6 nM; at CD73 [3], 2.23 nM.

As to `C[C@@H](c1ccccc1)N(C)c1nn(C)c2nnc(-c3c[nH]c(=O)[nH]c3=O)cc12` [Example 38, 5-[1-methyl-3-[methyl-[(1S)-1-phenylethyl]amino]pyrazolo[3,4-c]pyridazin-5-yl]-1H-pyrimidine-2,4-dione], in series [1], the “CL (h)” value is 9.3 mL/min/kg. For the same compound, the figures for the half-maximal inhibitory concentration (IC50) on CD73 [2] and at CD73 [3] were 1.6 nM and 0.25 nM, respectively.

For `Cn1nc(C2CCC2)c2cc(-c3c[nH]c(=O)[nH]c3=O)nnc21` [Example 39, 5-(3-cyclobutyl-1-methyl-pyrazolo[3,4-c]pyridazin-5-yl)-1H-pyrimidine-2,4-dione], in series [1], the “CL (h)” value was 6.15 mL/min/kg. Moreover, the IC50 on CD73 [2] was determined as 3.5 nM; on CD73 [3], 0.7 nM.

Regarding `O=c1[nH]cc(-c2cc3c(C4CCC4)noc3nn2)c(=O)[nH]1` [Example 46, 5-(3-cyclobutylisoxazolo[5,4-c]pyridazin-5-yl)-1H-pyrimidine-2,4-dione], the half-inhibitory concentration (IC50) at CD73 [2] stood at 10.4 nM; at CD73 [3] it was 2 nM.

One may read the IC50 as the point on the concentration scale where inhibition reaches its midpoint.
